Here are results for 2 compounds from patent US20250214966A1, “Crystalline Salt Form Of A SHP2 Inhibitor” (Array BioPharma Inc., priority 2022, published 2025).

Common to all, as to assay type: physicochemical
A short description of data set [1]: Photostability (2xICH), HPLC. The text has this: Photostability (Table 12): Sample preparation: Control—about 1 g of sample was transferred into a weighting bottle and covered with a glass cover. The sample was wrapped in aluminum foil to protect from light and placed into the photostability chamber. Photostability sample: about 1 g of sample was transferred into a weighing bottle, then placed into the photostability chamber. Storage conditions: The photostability samples were stored according to ICH Photostability Option 2: A cool white fluorescent lamp designed to produce an output similar to that specified in ISO 10977 (1993), a near UV fkuorescent lamp having a spectral distribution from 320 nm to 400 nm with a maximum energy emission between 350 nm and 370 nm; a significant portion of UV should be in both bands of 320 to 360 nm and 360 to 400 nm. The photo stability and dark control samples were exposed to the light equipment providing photo intensity if 5000±500 Lx (near ultraviolet energy 0.84 W/m^2±10%) and irradiated for 12 days (samples exposed to light providing an overall illumination of not less than 1.2 million lux hours and an integrated near UV energy of not less than 200 watt hours/quare meter).
Photostability (HPLC) (Table 12): An Agilent 1100 HPLC was used with a Waters XSelect HSS T3 Column (100 angstrom, 4.6×150 mm, 5 μm). The column temperature was set to 20° C., the UV wavelength set to 254 nm, the injection volume was 10 μL, with a flow rate of 1.0 mL/min. 10 mM ammonium acetate adjusted to pH 4.8 was used as a mobile phase A, and acetonitrile was used as mobile phase B. The gradient method was set up to achieve 15% mobile phase B at 0 minutes, 95% mobile phase B at 17 minutes—held until 22 minutes, 15% mobile phase. […]
Physical (PXRD) (Table 13): Powder X-ray diffraction analysis was conducted using a Bruker AXS D8 Endeavor diffractometer equipped with a Cu radiation source. […] Diffracted radiation was detected by a PSD-Lynx Eye detector, with the detector PSD opening set at 2.99 degrees. […]

The nature of data set [2]: Solubility in buffers, HPLC of mother liquors (Tables 12 and 13). As to conditions: for solubility at 25 h: 25 °C, thermodynamic from solid, read-out: Solubility Concentration. On the procedure:
Upon addition of the buffer solutions, the samples were vortexed. The samples were rotated at 40° C. for 8 hours, 15° C. for 5 hours, and 25° C. for 12 hours in an Envirogenie thermomixer. After the thermomixing cycle, the slurries were isolated by centrifugation filtration and the isolated mother liquors were analyzed by HPLC.
HPLC method (Tables 12 and 13): An Agilent 1290 UPLC instrument was used with a Waters XSelect HSS T3 Column (100 angstrom, 4.6×150 mm, 5 μm). The column temperature was set to 20° C., the UV wavelength set to 254 nm, the injection volume was 10 μL, with a flow rate of 1.0 mL/min. 10 mM Ammonium acetate adjusted to pH 4.8 was used as a mobile phase A, and acetonitrile was used as mobile phase B. The gradient method was set up to achieve 15% mobile phase B at 0 minutes, 95% mobile phase B at 17 minutes—held until 22 minutes, 15% mobile phase B at 22.1 minutes—held until 28 minutes.

The nature of data set [3]: Physical stability (PXRD) after storage at 70° C. On the procedure:
Physical Stability (PXRD) (Table 12): Powder X-ray diffraction analysis was conducted using a Bruker AXS D8 Endeavor diffractometer equipped with a Cu radiation source. The divergence slit was set at 10 mm continuous illumination. Diffracted radiation was detected by a PSD-Lynx Eye detector, with the detector PSD opening set at 2.99 degrees. The X-ray tube voltage and amperage were set to 40 kV and 40 mA respectively. Data was collected in the Theta-Theta goniometer at the Cu wavelength from 3.0 to 40.0 degrees 2-Theta using a step size of 0.02 degrees and a step time of 0.3 second. The antiscatter screen was set to a fixed distance of 1.5 mm. Samples were rotated at 15/min during collection. Samples were prepared by placing them in a silicon low background sample holder and rotated during collection. Data were collected using Bruker DIFFRAC Plus software and analysis was performed by EVA diffract plus software. A Small divot sample holder was used.
Physical Stability (PXRD) (Table 13): The Rigaku MiniFlex 6G Diffractometer used is equipped with a Cu radiation source. Diffracted radiation was detected by a D/teX Ultra2 detector. The X-ray tube voltage and amperages were set to 40 kV and 15 mA respectively. Data was collected in the Miniflex goniometer at the Cu wavelength from 3.0 to 45.0° 20 using a step width of 0.02° and a step speed of 2.00°/minute. The incident slit box was set to 1.25° and the length limiting slit was set at 10 mm. The sample was rotated at 10 RPM during collection. The data was analyzed using Rigaku software SmartLab Studio II.
The sample was prepared by placement into a silicon low background sample holder (0.2 indent plate). The sample was confirmed to be level and packed prior to measurement. The sample was not ground (by mortar and pestle, or by any other means) prior to placement in the sample holder.

Where [4] appears, read: 70° C./75% RH, first of two lines so headed.
Setting [5] is: printed 70° C./75% RH, second of two lines so headed.

Structures can show the parent of a compound that is named as a salt. Where two headings read alike, the source gives them in different places.

Take `Nc1nccc(Sc2cnc(N3CCC4(CC3)Cc3ccccc3[C@H]4N)nn2)c1Cl.Nc1nccc(Sc2cnc(N3CCC4(CC3)Cc3ccccc3[C@H]4N)nn2)c1Cl.O` [Example 2, (S)-1′-(6-((2-amino-3-chloropyridin-4-yl)thio)-1,2,4-triazin-3-yl)-1,3-dihydrospiro[indene-2,4′-piperidin]-1-amine Free Base Hemihydrate (Form 1)]: the “Photostability (2xICH), photodeg RRT 1.16” value in data set [1] is recorded as roughly 0.36%. Further, the “Photostability (2xICH), photodeg RRT 1.62” value in data set [1] is on record as roughly 0.32%. The “Solubility Concentration” value in data set [2] (Water, Final pH 9.19, Final XRD Additional peak at 8°) was 0.24 µg/mL; in data set [2] (pH 3, Final pH 4.51, Final XRD Freebase Form 1) it was 2044.85 µg/mL; in data set [2] (pH 4, Final pH 5.12, Final XRD Freebase Form 1) it was 301.79 µg/mL; in data set [2] (pH 5, Final pH 6.06, Final XRD Freebase Form 1), 58.53 µg/mL; in data set [2] (pH 6, Final pH 6.95, Final XRD Freebase Form 1) it was 32.25 µg/mL; in data set [2] (pH 7, Final pH 8.19, Final XRD Freebase Form 1), 10.05 µg/mL. Also, the “Solubility Concentration” value in data set [2] (pH 8, Final pH 9.13, Final XRD Insufficient solids) was found to be 0.56 µg/mL; in data set [2] (pH 9, Final pH 10.2, Final XRD Insufficient solids) it was 0.26 µg/mL; in data set [2] (pH 10, Final pH 3.94, Final XRD Insufficient solids), 0.45 µg/mL. Moreover, the “Physical Stability (70° C./75% RH)” value in data set [3] (setting [4]) and in data set [3] (setting [5]) was “No change” throughout.

With `Nc1nccc(Sc2cnc(N3CCC4(CC3)Cc3ccccc3[C@H]4N)nn2)c1Cl` [Example 3, (S)-1′-(6-((2-amino-3-chloropyridin-4-yl)thio)-1,2,4-triazin-3-yl)-1,3-dihydrospiro[indene-2,4′-piperidin]-1-amine Mono Succinate Salt Form 1], the “Photostability (2xICH), decrease in purity” value in data set [1] came to 0.53% decrease in purity. Besides, the solubility at 25 h in data set [2] (Water, Final pH 5.01, Final XRD Succinate Form 1) was 8180 µg/mL; in data set [2] (pH 3 buffer, aqueous buffer, pH 3, Final pH 4.5, Final XRD Succinate Form 1) it was 4220 µg/mL; in data set [2] (pH 4 acetate buffer, aqueous buffer, pH 4, Final pH 4.16, Final XRD Insufficient solids) it was 6400 µg/mL; in data set [2] (pH 5 buffer, aqueous buffer, pH 5, Final pH 5.08, Final XRD Succinate Form 1) it was 4440 µg/mL; in data set [2] (pH 6 phosphate buffer, aqueous buffer, pH 6, Final pH 5.37, Final XRD Freebase Form 1), 597 µg/mL; in data set [2] (pH 7 buffer, aqueous buffer, pH 7, Final pH 6.81, Final XRD Insufficient solids), 17.1 µg/mL. In addition, the solubility at 25 h in data set [2] (pH 8 buffer, aqueous buffer, pH 8, Final pH 7.78, Final XRD Freebase Form 1) is 2.66 µg/mL; in data set [2] (pH 9 buffer, aqueous buffer, pH 9, Final pH 9.01, Final XRD Freebase Form 1), 0.18 µg/mL; in data set [2] (pH 10 buffer, aqueous buffer, pH 10, Final pH 9.82, Final XRD Freebase Form 1) it was 0.17 µg/mL. Besides, the “Physical Stability (70° C./75% RH)” value in data set [3] (setting [4]) and in data set [3] (setting [5]) was “No change” each time.
